Laboratory results reported in patent US9113629B2, “4-amino-6-(4-substituted-phenyl)-picolinates and 6-amino-2-(4-substituted-phenyl)-pyrimidine-4-carboxylates and their use as herbicides” (DOW AGROSCIENCES LLC, priority 2013, dated 2015).

Tests used:
Assay in all cases: Post-emergent Test III, herbicidal activity in wheat and barley
Format in all cases: in vivo
[1] = tested on: LOLSS: ryegrass including, Italian ryegrass (Lolium multiflorum), rigid ryegrass (Lolium rigidum), annual ryegrass (Lolium multiflorum subsp. Gaudini); conditions: probit analysis, 21 days after application; for GR50 LOLSS: dose for growth reduction of 50 percent; for GR80 LOLSS: dose for growth reduction of 80 percent
Procedure, shortened: (§1)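 Plants at the second to third true-leaf stage, grown in a greenhouse at about 18/17 °C with a 14 h photoperiod, were sprayed post-emergence at 187 L/ha with the high rate and ½× to 1/16× serial dilutions in an acetone/DMSO/crop-oil/surfactant carrier. Injury was rated visually at 21 d on a 0–100% scale, and GR20–GR90 were derived by probit analysis.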

[2] = tested on: MATSS: scented mayweed (Matricaria chamomilla), pineappleweed (Matricaria matricarioides); conditions: for pest or weed control at 35 g/ha / pest or weed control at 70 g/ha / pest or weed control at 140 g/ha: Matricaria chamomilla, post-emergence, 504 h, read-out: Visual Growth Reduction (%) 21 Days After Application MATSS; for pest or weed control at 35 g/ha: 35 g ai/ha; for pest or weed control at 70 g/ha: 70 g ai/ha; for pest or weed control at 140 g/ha: 140 g ai/ha; for GR50 MATSS / GR80 MATSS: probit analysis, 21 days after application; for GR50 MATSS: dose for growth reduction of 50 percent; for GR80 MATSS: dose for growth reduction of 80 percent
Procedure, shortened: as §1

[3] = tested on: VERPE: bird's-eye speedwell (veronica persica); conditions: for pest or weed control at 35 g/ha / pest or weed control at 70 g/ha / pest or weed control at 140 g/ha: Veronica persica, post-emergence, 504 h, read-out: Visual Growth Reduction (%) 21 Days After Application VERPE; for pest or weed control at 35 g/ha: 35 g ai/ha; for pest or weed control at 70 g/ha: 70 g ai/ha; for pest or weed control at 140 g/ha: 140 g ai/ha; for GR50 VERPE / GR80 VERPE: probit analysis, 21 days after application; for GR50 VERPE: dose for growth reduction of 50 percent; for GR80 VERPE: dose for growth reduction of 80 percent
Procedure, shortened: as §1

[4] = tested on: HORSS: barley, including spring and winter (Hordeum vulgare); conditions: for pest or weed control at 35 g/ha / pest or weed control at 70 g/ha / pest or weed control at 140 g/ha: Hordeum vulgare, post-emergence, 504 h, read-out: Visual Growth Reduction (%) 21 Days After Application HORSS; for pest or weed control at 35 g/ha: 35 g ai/ha; for pest or weed control at 70 g/ha: 70 g ai/ha; for pest or weed control at 140 g/ha: 140 g ai/ha; for GR20 HORSS: probit analysis, dose for growth reduction of 20 percent, 21 days after application, crop
Procedure, shortened: as §1

[5] = tested on: APESV: bentgrass (Apera spica-venti); conditions: for pest or weed control at 35 g/ha / pest or weed control at 70 g/ha / pest or weed control at 140 g/ha: Apera spica-venti, post-emergence, 504 h, read-out: Visual Growth Reduction (%) 21 Days After Application APESV; for pest or weed control at 35 g/ha: 35 g ai/ha; for pest or weed control at 70 g/ha: 70 g ai/ha; for pest or weed control at 140 g/ha: 140 g ai/ha; for GR50 APESV / GR80 APESV: probit analysis, 21 days after application; for GR50 APESV: dose for growth reduction of 50 percent; for GR80 APESV: dose for growth reduction of 80 percent
Procedure, shortened: as §1

[6] = tested on: TRZSS: wheat, including spring and winter (Triticum aestivum); conditions: for pest or weed control at 35 g/ha / pest or weed control at 70 g/ha / pest or weed control at 140 g/ha: Triticum aestivum, post-emergence, 504 h, read-out: Visual Growth Reduction (%) 21 Days After Application TRZSS; for pest or weed control at 35 g/ha: 35 g ai/ha; for pest or weed control at 70 g/ha: 70 g ai/ha; for pest or weed control at 140 g/ha: 140 g ai/ha; for GR20 TRZSS: probit analysis, dose for growth reduction of 20 percent, 21 days after application, crop
Procedure, shortened: as §1

[7] = tested on: KCHSC: kochia (Kochia scoparia); conditions: for pest or weed control at 35 g/ha / pest or weed control at 70 g/ha / pest or weed control at 140 g/ha: Bassia scoparia, post-emergence, 504 h, read-out: Visual Growth Reduction (%) 21 Days After Application KCHSC; for pest or weed control at 35 g/ha: 35 g ai/ha; for pest or weed control at 70 g/ha: 70 g ai/ha; for pest or weed control at 140 g/ha: 140 g ai/ha; for GR50 KCHSC / GR80 KCHSC: probit analysis, 21 days after application; for GR50 KCHSC: dose for growth reduction of 50 percent; for GR80 KCHSC: dose for growth reduction of 80 percent
Procedure, shortened: as §1

[8] = tested on: SETVI: green foxtail (Setaria viridis); conditions: for pest or weed control at 35 g/ha / pest or weed control at 70 g/ha / pest or weed control at 140 g/ha: Setaria viridis, post-emergence, 504 h, read-out: Visual Growth Reduction (%) 21 Days After Application SETVI; for pest or weed control at 35 g/ha: 35 g ai/ha; for pest or weed control at 70 g/ha: 70 g ai/ha; for pest or weed control at 140 g/ha: 140 g ai/ha; for GR50 SETVI / GR80 SETVI: probit analysis, 21 days after application; for GR50 SETVI: dose for growth reduction of 50 percent; for GR80 SETVI: dose for growth reduction of 80 percent
Procedure, shortened: as §1

Structure (SMILES) | GR50 LOLSS [1] [g ai/ha] | GR80 LOLSS [1] [g ai/ha] | pest or weed control at 35 g/ha [2] [%] | pest or weed control at 70 g/ha [2] [%] | pest or weed control at 140 g/ha [2] [%] | GR50 MATSS [2] [g ai/ha] | GR80 MATSS [2] [g ai/ha] | pest or weed control at 35 g/ha [3] [%] | pest or weed control at 70 g/ha [3] [%] | pest or weed control at 140 g/ha [3] [%] | GR50 VERPE [3] [g ai/ha] | GR80 VERPE [3] [g ai/ha] | pest or weed control at 35 g/ha [4] [%] | pest or weed control at 70 g/ha [4] [%] | pest or weed control at 140 g/ha [4] [%] | GR20 HORSS [4] [g ai/ha] | pest or weed control at 35 g/ha [5] [%] | pest or weed control at 70 g/ha [5] [%] | pest or weed control at 140 g/ha [5] [%] | GR50 APESV [5] [g ai/ha] | also measured
Nc1cc(-c2ccc(Br)c(F)c2F)nc(C(=O)O)c1Cl [Compound 91] | >140 | >140 | 60 to 74 | 75 to 84 | 85 to 94 | 11 | 75 | 30 to 44 | 30 to 44 | 45 to 59 | 123 | >140 | 75 to 84 | 75 to 84 | 85 to 94 | 1 | 45 to 59 | 45 to 59 | 60 to 74 | 67 | GR80 APESV [5]: >140 g ai/ha; pest or weed control at 35 g/ha [6]: 75 to 84%; pest or weed control at 70 g/ha [6]: 85 to 94%; pest or weed control at 140 g/ha [6]: 85 to 94%; GR20 TRZSS [6]: 1 g ai/ha; pest or weed control at 35 g/ha [7]: 75 to 84%; pest or weed control at 70 g/ha [7]: 85 to 94%; pest or weed control at 140 g/ha [7]: 85 to 94%; GR50 KCHSC [7]: 2 g ai/ha; GR80 KCHSC [7]: 47 g ai/ha; pest or weed control at 35 g/ha [8]: 60 to 74%; pest or weed control at 70 g/ha [8]: 75 to 84%; pest or weed control at 140 g/ha [8]: 75 to 84%; GR50 SETVI [8]: 6 g ai/ha; GR80 SETVI [8]: 105 g ai/ha
Nc1c(F)c(-c2ccc(Cl)c(F)c2)nc(C(=O)O)c1Cl [Compound 217] | 32 | >140 | 85 to 94 | 85 to 94 | 85 to 94 | 34 | >140 | 60 to 74 | 60 to 74 | 60 to 74 | 19 | 73 | 75 to 84 | 75 to 84 | 75 to 84 | 7 | 85 to 94 | 85 to 94 | 95 to 100 | 6 | GR80 APESV [5]: 15 g ai/ha; pest or weed control at 35 g/ha [6]: 75 to 84%; pest or weed control at 70 g/ha [6]: 75 to 84%; pest or weed control at 140 g/ha [6]: 85 to 94%; GR20 TRZSS [6]: 2 g ai/ha; pest or weed control at 35 g/ha [7]: 85 to 94%; pest or weed control at 70 g/ha [7]: 95 to 100%; pest or weed control at 140 g/ha [7]: 95 to 100%; GR50 KCHSC [7]: 2 g ai/ha; GR80 KCHSC [7]: 6 g ai/ha; pest or weed control at 35 g/ha [8]: 75 to 84%; pest or weed control at 70 g/ha [8]: 75 to 84%; pest or weed control at 140 g/ha [8]: 75 to 84%; GR50 SETVI [8]: 46 g ai/ha; GR80 SETVI [8]: >140 g ai/ha
